System: SD male rats
Experiment: Conditioned place preference (CPP) test: recovery after acquisition of methamphetamine-induced psychological dependence
Format: in vivo
Settings: 0.3 mg/kg subcutaneous twice per day, after methamphetamine (2.0 mg/kg s.c.) conditioning
Description: Effect of Compound 1 in Promoting the Recovery Process after Acquisition of Psychological Dependence by a Stimulant Drug (Therapeutic Effect for Stimulant Drug Dependence)
The effect of compound 1 in promoting recovery during the convalescence after the acquisition of psychological dependence by a stimulant drug was discussed using the conditioned place preference method (Suzuki, T., et al., Psychopharmacology, 102, 438, 1990; Spyraki, C., The Psychopharmacology of Addiction, p. 96, Oxford Medical Publication, New York, 1988; hereinafter called “CPP method”). As a stimulant drug forming psychological dependence, methamphetamine hydrochloride was used. Furthermore, as a therapeutic agent for drug dependence, compound 1 was used.
For the experiment, SD male rats were used. The experimental apparatus used was a CPP apparatus having two compartments (one black, the other white). In the experiment, at first, the rats were trained for being conditioned with the sensory effect of the drug and the environments (white and black) in the apparatus for 6 days. The conditioned rats were placed and tested in the apparatus without drug administration. The drug dependence was evaluated with the residence time of the rats in the white and black boxes in the test session, as an indicator, in reference to whether the rats preferred the drug-induced sensory effect. […]

SMILES: Oc1ccc2c3c1O[C@H]1c4c(c5cc(F)cc6c5n4CCC6)C[C@@]4(O)[C@@H](C2)N(CC2CC2)CC[C@]314 [Compound 1]
- recovery from the state of stimulant drug dependence (CPP residence time) (7th day after start of administration, significance level 5% or less vs solvent): significant recovery
- recovery from the state of stimulant drug dependence (CPP residence time) (from the 4th day after start of administration): apparent recovery
